This passage reports GI50 and TGI results from PubChem BioAssay (NCI).

“And” between values parts separate entries of the source, which are not always exact repeats. Equal entries are not always repeated.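 48-hour exposure; five concentrations; linearly interpolated endpoints. Abbreviation: GI50, concentration required for 50% inhibition of growth. TGI is the concentration that stops growth completely.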 Some results are limits rather than exact numbers.

For the experiment, the system named is MDA-MB-468 breast. As to the kind of experiment: NCI tumour cell line growth inhibition, 48 h.
With `CC(C)OC(=O)c1ccc2[nH]c(O)c(C(=Nc3ccc(N(C)C(=O)CN4CCN(C)CC4)cc3)c3ccccc3)c2c1`, the GI50 is 964 nM and the TGI came to 2460 nM.

As for `CC1=CC(=O)C(C(C)=Nc2ccccc2Cl)C(=O)O1` (stereo unspecified), the GI50 was greater than 100000 nM and the TGI is greater than 100000 nM.

Take `Cn1cc(-c2ccc3c(c2)CCN3C(=O)Cc2cccc(C(F)(F)F)c2)c2c(N)ncnc21`: the GI50 is 3710 nM and the TGI was found to be 29200 nM.

As to `O=c1oc2ccc(Cl)cc2c(=O)n1-c1ccc(I)cc1F`, the GI50 is 269 nM and the TGI came to 870 nM.

Regarding `O=C(NN1C(=O)CSC1c1ccc(Cl)cc1)c1[nH]c2ccc(F)cc2c1-c1ccccc1` (stereo unspecified), the GI50 is 8040 nM and the TGI turned out to be 25100 nM.

Regarding `CCCCC[C@H]1C/C=C2/C(=O)C(Cl)=C[C@@H]2C/C=C\CCCC(=O)O[C@@H](CCCCC)C/C=C2/C(=O)C(Cl)=C[C@@H]2C/C=C\CCCC(=O)O1`, the GI50 is 366 nM and the TGI came to 862 nM.

In the case of `C=C[C@]1(C)C=C2C(=O)[C@@]3(O)OC[C@@]4(CCCC(C)(C)C43O)C2(O)C(O)C1` (stereo partly specified), the GI50 is 1290 nM and the TGI was determined as 3160 nM.

On to `CS(=O)(=O)Nc1cc(-c2ccc3ncnc(Nc4ccc5c(cnn5Cc5ccc(F)cc5)c4)c3c2)cnc1Cl`, for which the GI50 is 281 nM and the TGI was found to be 1520 nM.

Turning to `COc1cnc2c(c1)C(=O)c1c-2n(CCCN2CCCC2)c(=O)c2cc(Cl)ccc12`, the GI50 is 63.5 nM and the TGI came out at 2040 nM.

As to `COc1ccc2c(c1)nc(N)c1c3cccnc3cn21`, the GI50 was 294 nM and the TGI came to 3450 nM.

`COc1cc(/C=C(/c2ccccc2)[N+](=O)[O-])c(OC)c2c1OCO2`: the GI50 is 1330 nM and the TGI is 2730 nM.

Consider `O=C(/C=C/c1ccccc1Cl)Nc1ncc(Cc2cc(Cl)ccc2Cl)s1`, for which the GI50 was 934 nM and the TGI was 11100 nM.

In the case of `NCc1ccc(-n2c(-c3nonc3N)nc3cnccc32)cc1`, the GI50 is 2750 nM and the TGI is 11800 nM.

For the compound `Oc1cc(Cl)ccc1Oc1ccc(Cl)cc1Cl`, the GI50 is 2420 nM and the TGI came to 7240 nM.

Consider `CCCCCc1c(C)[nH]c(/C=C2\N=C(c3ccc[nH]3)C=C2Oc2ccc(Cl)cc2)c1C`, for which the GI50 was 24.3 nM and the TGI came to 2180 nM.

As to `CCN1C(=O)N(CC)C2C1NN=c1s/c(=C3\C(=O)N(C)c4ccccc43)c(=O)n12` (stereo unspecified), the GI50 was 354 nM and the TGI was 6010 nM.

Take `COc1ccccc1-c1c(C)nn2c(NCc3ccccn3)cc(C)nc12`: the GI50 was 1660 nM and the TGI was greater than 40400 nM.

Regarding `COc1ccc(/C=C2\CCCC3=C2NC(C)=NC3c2ccc(OC)c(OC)c2)cc1OC` (stereo unspecified), the GI50 is 1290 nM and the TGI worked out at 8180 nM.

Consider `Cn1cc(-c2cc(N)n3nc(-c4cn(C)c5ccc(F)cc45)cc3n2)c2cc(F)ccc21`, for which the GI50 was 1590 nM and the TGI was 3450 nM.

With `Cc1cc(N2CCCC2)nc(N(CCCNc2ccnc3cc(Cl)ccc23)Cc2ccc3c(c2)OCO3)n1`, the GI50 is 1180 nM and the TGI is 3550 nM.

In the case of `Fc1ccc(Nc2nc(NCCNc3ccnc4cc(Cl)ccc34)nc(N3CCOCC3)n2)cc1`, the GI50 is 1960 nM and the TGI worked out at 4830 nM.

In the case of `Cc1ccc2c(c1)ncn2-c1ncnc2c1CC(C)c1ccccc1N2C` (stereo unspecified), the GI50 was 49.2 nM and the TGI stood at 19200 nM.

Turning to `Nc1nc(Nc2cccc(F)c2)nc2ccccc12`, the GI50 was 13600 nM and the TGI was 30800 nM.

With `CC1=C[C@H]2O[C@@H]3C[C@H]4OC(=O)/C=C\C=C\[C@H]([C@@H](C)O)OCC[C@@H](C)[C@H](O)C(=O)OC[C@@]2(CC1)[C@]4(C)[C@]31CO1`, the GI50 was 3.71 nM and 1.43 nM; the TGI was found to be 2.28 nM.

As for `Cn1cc(-c2ccc(CNc3cc(-c4cnc5cc(OCCCN6CCCC6)ccn45)ncn3)cc2)cn1`, the GI50 was 1660 nM and the TGI worked out at 3210 nM.

For the compound `COC(=O)[C@@H]1CCCN1C(=O)[C@@H]1CCCN1C(=O)[C@@H](Cc1c[nH]c2ccccc12)NC(=S)Nc1cc(C(F)(F)F)cc(C(F)(F)F)c1`, the GI50 is 2050 nM and the TGI turned out to be 7020 nM.

Take `C[C@H](CS(C)(=O)=O)Nc1ncc2cc(Oc3ccc(F)cc3F)c(=O)n(C)c2n1`: the GI50 is greater than 25000 nM and the TGI is greater than 25000 nM.

On to `C=C(C)CCC(C)N1CCC(N2CCC(C(=O)NCCc3ccccc3)CC2)CC1` (stereo unspecified), for which the GI50 was 2200 nM and the TGI was 15800 nM.

For `Clc1ccc2nc(Oc3ccccc3)cnc2c1`, the GI50 is greater than 100000 nM and the TGI was greater than 100000 nM.

With `CCOC(=O)N1CCN(S(=O)(=O)c2oc(-c3ccc(Cl)cc3)nc2C#N)CC1`, the GI50 is 1890 nM and the TGI came to 4090 nM.

In the case of `Fc1ccc(Nc2nccc(-c3c(-c4ccc(C(F)(F)F)cc4)nn4ncccc34)n2)cc1F`, the GI50 is greater than 20000 nM and the TGI is greater than 25000 nM.

Regarding `CCc1c[nH]c2ncnc(N3CC[C@@](N)(CNC(=O)c4ccc(F)cc4F)C3)c12`, the GI50 was 15000 nM and the TGI is 63700 nM.

Regarding `COC1CCN(Cc2ccc3c(NNC(=O)c4cnccn4)nc4cc(F)ccc4n23)C1` (stereo unspecified), the GI50 was 916 nM and the TGI is 4270 nM.
